The target of the test is T1, histone acetyltransferase p300 (Homo sapiens, UniProt Q09472).
T1 construct: purchased BPS Corporation 50071
T1 sequence (Q09472 1284-1673 limits assumed): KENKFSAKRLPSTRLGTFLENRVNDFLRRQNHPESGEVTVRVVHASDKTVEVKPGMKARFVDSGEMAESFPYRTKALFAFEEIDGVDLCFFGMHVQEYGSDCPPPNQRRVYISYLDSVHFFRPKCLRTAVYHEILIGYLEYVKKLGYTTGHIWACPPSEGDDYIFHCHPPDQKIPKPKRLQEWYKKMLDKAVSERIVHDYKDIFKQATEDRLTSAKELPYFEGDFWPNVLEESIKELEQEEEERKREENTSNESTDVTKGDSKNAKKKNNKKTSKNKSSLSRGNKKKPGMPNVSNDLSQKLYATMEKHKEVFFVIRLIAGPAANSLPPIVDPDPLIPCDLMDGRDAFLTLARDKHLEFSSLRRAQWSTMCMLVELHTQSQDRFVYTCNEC
Put plainly: Histone acetyltransferase (p300) activity assay (radioisotope, [3H]-Ac-CoA). The following applies: p300 0.05 nM; histone peptide 600 nM, [3H]-Ac-CoA 250 nM; 60 min at room temperature; read-out: Inhibition rate IC50. It is filed as biochemical. The method, then: The reaction was finally terminated with Ac-CoA (Sigma, Cat. No. A2056) without isotope labeling. If the activity of the acetyltransferase p300 was inhibited, the isotope signal cannot be detected on the substrate polypeptide. Therefore, the inhibitory activity of the compound against the acetyltransferase p300 was evaluated.
In the enzyme reaction system, 200 nL of a diluted compound (100% DMSO) was first transferred to a test plate using Echo, where the final concentration of the compound in the enzyme reaction system ranges from 0.25 to 5000 nM. Then 10 μL/well of p300 protein (final concentration of 0.05 nM) was transferred therein, and incubated with the compound for 15 min at room temperature. Then 10 μL/well of a substrate mixture (final concentrations of histone peptide and [^3H]—Ac-CoA were 600 nM and 250 nM, respectively) was added to start the enzyme-catalyzed reaction, and incubated at room temperature for 60 min. Then 10 µL/well of a 250 μM cold Ac-CoA solution was added to stop the reaction. Finally 25 μL/well of the reaction solution was transferred to a 384-well Flashplate (Perkin Elmer, Cat. No. SMP410A001PK), and incubated at room temperature for 1 h. The resultant was washed with double distilled water+0.1% Tween-20 three times. The signal value was read by using Microbeta. The data was analyzed by using GraphPad Prism 5.0 software to obtain IC50.

Take `CNC(=O)Nc1ccc2c(c1)CC[C@]21OC(=O)N(CC(=O)N2Cc3ccccc3CC[C@@H]2C2CC2)C1=O` [SYY-B017-1]: the IC50 was 640 nM.
For the compound `CNC(=O)Nc1ccc2c(c1)CC[C@@]21OC(=O)N(CC(=O)N2Cc3ccccc3CC[C@@H]2C2CC2)C1=O` [SYY-B017-2], the IC50 worked out at 270 nM.
Take `CNC(=O)Nc1ccc2c(c1)CC[C@]21OC(=O)N(CC(=O)N2Cc3ccccc3CC[C@@H]2C(C)C)C1=O` [SYY-B020-1]: the IC50 came out at 200 nM.
In the case of `CNC(=O)Nc1ccc2c(c1)CC[C@@]21OC(=O)N(CC(=O)N2Cc3ccccc3CC[C@@H]2C(C)C)C1=O` [SYY-B020-2], the IC50 stood at 45 nM.
As for `CNC(=O)Nc1ccc2c(c1)CC[C@]21OC(=O)N(CC(=O)N2Cc3ccc(F)cc3CC[C@@H]2C)C1=O` [SYY-B022-1], the half-inhibitory concentration (IC50) was found to be 54 nM.
Take `CNC(=O)Nc1ccc2c(c1)CC[C@@]21OC(=O)N(CC(=O)N2Cc3ccc(F)cc3CC[C@@H]2C)C1=O` [SYY-B022-2]: the concentration for half-maximal inhibition (IC50) is 12 nM.
As for `CCC[C@H]1CCc2ccccc2CN1C(=O)CN1C(=O)O[C@]2(CCc3cc(NC(=O)NC)ccc32)C1=O` [SYY-B024-1], the IC50 was determined as 47 nM.
Next, `CNC(=O)Nc1ccc2c(c1)CC[C@]21OC(=O)N(CC(=O)N2Cc3ccc(F)cc3CC[C@@H]2C2CC2)C1=O` [SYY-B026-1]: 22 nM; `CNC(=O)Nc1ccc2c(c1)CC[C@]21OC(=O)N(CC(=O)N2Cc3ccccc3CC[C@@H]2C(F)(F)F)C1=O` [SYY-B028-1]: 1100 nM; `CNC(=O)Nc1ccc2c(c1)CC[C@@]21OC(=O)N(CC(=O)N2Cc3ccccc3CC[C@@H]2C(F)(F)F)C1=O` [SYY-B028-2]: 55 nM.
Next, `CNC(=O)Nc1ccc2c(c1)CC[C@]21OC(=O)N(CC(=O)N2Cc3cc(F)ccc3OC[C@@H]2C2CC2)C1=O` [SYY-B030-1]: 230 nM.
For `CNC(=O)Nc1ccc2c(c1)CC[C@@]21OC(=O)N(CC(=O)N2Cc3cc(F)ccc3OC[C@@H]2C2CC2)C1=O` [SYY-B030-2], the concentration for half-maximal inhibition (IC50) is 230 nM.
For `CNC(=O)Nc1ccc2c(c1)CC[C@@]21OC(=O)N(CC(=O)N2Cc3ccc(F)cc3CC[C@@H]2C(F)(F)F)C1=O` [SYY-B032-2], the half-maximal inhibitory concentration (IC50) is 37 nM.
In the case of `CNC(=O)Nc1ccc2c(c1)CCC21NC(=O)N(CC(=O)N2Cc3ccc(F)cc3CC[C@@H]2C2CC2)C1=O` (stereo partly drawn) [SYY-B034] it was greater than 100 nM; in that of `NC1(C(=O)Nc2ccc3c(c2)CC[C@]32OC(=O)N(CC(=O)N3Cc4ccc(F)cc4CC[C@@H]3C3CC3)C2=O)CC1` [SYY-B036-1], 180 nM; in that of `NC1(C(=O)Nc2ccc3c(c2)CC[C@@]32OC(=O)N(CC(=O)N3Cc4ccc(F)cc4CC[C@@H]3C3CC3)C2=O)CC1` [SYY-B036-2], 1500 nM.
In the case of `CC(C)(N)C(=O)Nc1ccc2c(c1)CC[C@]21OC(=O)N(CC(=O)N2Cc3ccc(F)cc3CC[C@@H]2C2CC2)C1=O` [SYY-B037-2], the IC50 is greater than 100 nM.
Regarding `CC(C)(N)C(=O)Nc1ccc2c(c1)CC[C@@]21OC(=O)N(CC(=O)N2Cc3ccc(F)cc3CC[C@@H]2C2CC2)C1=O` [SYY-B038-2], the 50% inhibitory concentration (IC50) was greater than 100 nM.
As for `NC1(C(=O)Nc2ccc3c(c2)CC[C@]32OC(=O)N(CC(=O)N3Cc4ccc(F)cc4CC[C@@H]3C3CC3)C2=O)CCC1` [SYY-B040-1], the IC50 is 130 nM.
On to `NC1(C(=O)Nc2ccc3c(c2)CC[C@@]32OC(=O)N(CC(=O)N3Cc4ccc(F)cc4CC[C@@H]3C3CC3)C2=O)CCC1` [SYY-B040-2], for which the IC50 is 160 nM.
Regarding `Cn1cc(-c2ccc3c(c2)CCC32NC(=O)N(CC(=O)N3Cc4ccc(F)cc4CC[C@@H]3C3CC3)C2=O)cn1` (stereo partly drawn) [SYY-B044], the 50% inhibitory concentration (IC50) was greater than 50 nM.
`CNC(=O)Cn1cc(-c2ccc3c(c2)CCC32NC(=O)N(CC(=O)N3Cc4ccc(F)cc4CC[C@@H]3C3CC3)C2=O)cn1` (stereo partly drawn) [SYY-B046]: the 50% inhibitory concentration (IC50) was greater than 50 nM.
As for `CNC(=O)Nc1ccc2c(c1)CC[C@]21OC(=O)N(CC(=O)N2Cc3cc(F)ccc3OC[C@H]2C(F)(F)F)C1=O` [SYY-B057-1], the half-inhibitory concentration (IC50) was 8.9 nM.
In the case of `CNC(=O)Nc1ccc2c(c1)CC[C@]21OC(=O)N(CC(=O)N2Cc3cccnc3CC[C@H]2C2CC2)C1=O` [SYY-B081-1] it was less than 200 nM; in that of `CNC(=O)Nc1ccc2c(c1)CC[C@@]21OC(=O)N(CC(=O)N2Cc3cccnc3CC[C@H]2C2CC2)C1=O` [SYY-B081-2], 6.8 nM.
In the case of `CNC(=O)Nc1ccc2c(c1)CCC21NC(=O)N(CC(=O)N2Cc3cc(F)c(F)cc3CC[C@H]2C2CC2)C1=O` (stereo partly drawn) [SYY-B088] it was less than 10 nM.
`CNC(=O)Nc1ccc2c(c1)CC[C@]21OC(=O)N(CC(=O)N2Cc3cc(F)c(F)cc3CC[C@H]2C2CC2)C1=O` [SYY-B090-1]: the half-maximal inhibitory concentration (IC50) was 1.37 nM.
Consider `CNC(=O)Nc1ccc2c(c1)CC[C@@]21OC(=O)N(CC(=O)N2Cc3cc(F)c(F)cc3CC[C@H]2C2CC2)C1=O` [SYY-B090-2], for which the IC50 came out at 1.58 nM.
In the case of `Cn1cc(-c2ccc3c(c2)CCCC32OC(=O)N(CC(=O)N3Cc4cc(F)ccc4OC[C@H]3C3CC3)C2=O)cn1` (stereo partly drawn) [SYY-B094] it was less than 100 nM; in that of `CNC(=O)Nc1ccc2c(c1)CC[C@]21OC(=O)N(CC(=O)N2Cc3ncccc3CC[C@H]2C2CC2)C1=O` [SYY-B095-1], 11.7 nM; in that of `CNC(=O)Nc1ccc2c(c1)CC[C@@]21OC(=O)N(CC(=O)N2Cc3ncccc3CC[C@H]2C2CC2)C1=O` [SYY-B096-2], 7.4 nM.
For the compound `CNC(=O)Nc1ccc2c(c1)CC[C@]21OC(=O)N(CC(=O)N2Cc3ccncc3CC[C@H]2C2CC2)C1=O` [SYY-B097-1], the IC50 was determined as 42.3 nM.
On to `CNC(=O)Nc1ccc2c(c1)CC[C@@]21OC(=O)N(CC(=O)N2Cc3ccncc3CC[C@H]2C2CC2)C1=O` [SYY-B097-2], for which the 50% inhibitory concentration (IC50) stood at 4 nM.
In the case of `CNC(=O)Nc1ccc2c(c1)CC[C@]21OC(=O)N(CC(=O)N2Cc3sccc3OC[C@H]2C2CC2)C1=O` [SYY-B100-1], the IC50 came to 20.6 nM.
In the case of `CNC(=O)Nc1ccc2c(c1)CC[C@@]21OC(=O)N(CC(=O)N2Cc3sccc3OC[C@H]2C2CC2)C1=O` [SYY-B100-2] it was 16.8 nM; in that of `CNC(=O)Nc1ccc2c(c1)CC[C@]21OC(=O)N(CC(=O)N2Cc3ccsc3CC[C@H]2C2CC2)C1=O` [SYY-B102-1], 13.9 nM; in that of `CNC(=O)Nc1ccc2c(c1)CC[C@@]21OC(=O)N(CC(=O)N2Cc3ccsc3CC[C@H]2C2CC2)C1=O` [SYY-B102-2], 0.55 nM.
Next, `CNC(=O)Nc1ccc2c(c1)CCC21NC(=O)N(CC(=O)N2Cc3ccsc3CC[C@H]2C2CC2)C1=O` (stereo partly drawn) [SYY-B104]: less than 20 nM; `CNC(=O)Nc1ccc2c(c1)COCC21NC(=O)N(CC(=O)N2Cc3cc(F)ccc3OC[C@H]2C2CC2)C1=O` (stereo partly drawn) [SYY-B106]: less than 20 nM; `CNC(=O)Nc1ccc2c(c1)CCC21NC(=O)N(CC(=O)N2Cc3sccc3OC[C@H]2C2CC2)C1=O` (stereo partly drawn) [SYY-B108]: less than 50 nM.
Turning to `Cn1cc(-c2ccc3c(c2)OCC32NC(=O)N(CC(=O)N3Cc4cc(F)ccc4OC[C@H]3C3CC3)C2=O)cn1` (stereo partly drawn) [SYY-B110], the IC50 was less than 10 nM.
Take `CNC(=O)Nc1ccc2c(c1)COCC21OC(=O)N(CC(=O)N2Cc3cc(F)ccc3OC[C@H]2C2CC2)C1=O` (stereo partly drawn) [SYY-B112]: the IC50 is less than 10 nM.
Next, `CNC(=O)Nc1ccc2c(c1)CC[C@]21OC(=O)N(CC(=O)N2Cc3sc(C)c(C)c3CC[C@H]2C2CC2)C1=O` [SYY-B116-1]: 140 nM; `CNC(=O)Nc1ccc2c(c1)CC[C@@]21OC(=O)N(CC(=O)N2Cc3sc(C)c(C)c3CC[C@H]2C2CC2)C1=O` [SYY-B116-2]: 2 nM; `CNC(=O)Nc1ccc2c(c1)CC[C@@]21OC(=O)N(CC(=O)N2Cc3sc(C)c(C)c3OC[C@H]2C2CC2)C1=O` [SYY-B118-2]: 6.6 nM.
Next, `CNC(=O)Nc1ccc2c(c1)CCC21NC(=O)N(CC(=O)N2Cc3ccsc3OC[C@H]2C2CC2)C1=O` (stereo partly drawn) [SYY-B122]: less than 10 nM; `CNC(=O)Nc1ccc2c(c1)CCC21NC(=O)N(CC(=O)N2Cc3sccc3CC[C@H]2C2CC2)C1=O` (stereo partly drawn) [SYY-B124]: less than 20 nM.
Next, `CNC(=O)Nc1ccc2c(c1)CC[C@@]21OC(=O)N(CC(=O)N2Cc3sccc3CC[C@H]2C2CC2)C1=O` [SYY-B126-2]: 0.5 nM.
As for `Cn1cc(-c2ccc3c(c2)S(=O)(=O)C[C@]32NC(=O)N(CC(=O)N3Cc4cc(F)ccc4OC[C@H]3C(F)(F)F)C2=O)cn1` [SYY-B130], the IC50 is less than 10 nM.
In the case of `Cn1cc(-c2ccc3c(c2)C(F)C[C@]32NC(=O)N(CC(=O)N3Cc4cc(F)ccc4OC[C@H]3C3CC3)C2=O)cn1` (stereo partly drawn) [SYY-B132-2] it was less than 10 nM; in that of `CNC(=O)Nc1ccc2c(c1)CC[C@]21OC(=O)N(CC(=O)N2Cc3cnccc3CC[C@H]2C2CC2)C1=O` [SYY-B136-1], less than 10 nM.

For orientation: IC50 means the point on the concentration scale where inhibition reaches its midpoint.

(Values after patent US12172989B2, “Histone acetyltransferase (HAT) inhibitor and use thereof” (SHANGHAI INSTITUTE OF MATERIA MEDICA, CHINESE ACADEMY OF …, priority 2018, dated 2024).)
